# Measured values as given in EP0251194A1, “Use of carbocyclic and heterocyclic condensed dihydropyridines for the preparation of cardioprotective remedies and heterocyclic and carbocyclic condensed dihydropyridines and methods and intermediates for their preparation” (BOEHRINGER INGELHEIM KG, priority 1986, dated 1988).
# Key:
# [1] = system: myocardiale Radio-Calciumaufnahme; assay: Inhibition of isoprenaline-induced myocardial radio-calcium uptake in conscious rats (method of Arndts); format: in vivo, Ratten; settings: peroral administration, dose that inhibits by 50 % the myocardial radio-calcium uptake caused by 30 mg/kg s.c. isoprenaline
# Description: Bekanntlich ist der myocardiale Ca⁺² -Gehalt ein Maß für die hypoxische bzw. die durch toxische Catecholamindosen hervorgerufene Herzschädigung (Higgins et al., Mol. Cell. Cardiol. 10: 427 - 438, 1984; Nakanishi et al., Am. J. Physiol. 242: 437 - 449, 1982; Fleckenstein, A., Vorträge der Erlanger Physiol. Tagung 1970, Ed. Keidel, Springer Verlag Berlin, Heidelberg, New York, 1971). Umgekehrt ist die Inhibition der hypoxischen oder Isoprenalin-bedingten mycardialen Calciumaufnahme ein Maß für die cardioprotektive Effektivität von Calciumantagonisten (Fleckenstein s.o.), von Calmodulininhibitoren (Higgins) und anderen Pharmaka, z.B. Betaadrenolytika (Arndts, Arzneimittelforschung 25: 1279 - 1284, 1975).
# Die cardioprotektive Wirkung wurde an wachen Ratten nach subcutaner oder peroraler Wirkstoffgabe anhand der von Arndts (s.o.) beschriebenen Methode festgestellt, und die Wirkungsstärke der Testsubtanzen als H₅₀-Wert angegeben; dieser Wert entspricht der Dosis, die die durch eine Gabe von 30 (mg/kg; s.c.) Isoprenalin bedingte myocardiale Radio-Calciumaufnahme zu 50 % hemmt.
# Isoliertes Rattenherz = assay: Isolated Langendorff heart, oxygen deficiency by reduced perfusion flow, time to onset of regular contractions; design: species or system Ratten; settings: isolated rat heart; infusion of test substance during the O2 deficiency state (60 min, flow reduced 100-fold)
# Protocol: Die Untersuchungen am isolierten Langendorff-Herzen wurden nach O. Langendorff, Pflügers Arch. 61, 291 (1895) mit kleinen Abwandlungen ausgeführt:
# Isoliertes Rattenherz, retrograde Perfusion über die Aorta. Elektrische Stimulation (300 Impulse/min, Impulsdauer 1msec). Messung des linksventrikulär entwickelten Druckes mit flüssigkeitsgefülltem Latex-Ballon. Nach 20 min Aequilibrierung Auslösen eines Sauerstoff-Mangelzustandes mit 100-fach vermindertem Fluß durch Drosselung des Perfusionsflusses für 60 min, Rückkehr zu normalem Fluß bewirkt starken Anstieg der Grundspannung, unter Kontrollbedingungen setzt die Herztätigkeit nach 6 - 7 min unregelmäßig wieder ein, nach 15 - 18 min rascher Übergang zu regelmäßigen Kontraktionen. Cardioprotektiv wirksame Verbindungen verkürzen die Zeit bis zum Einsetzen regelmäßiger Kontraktionen. Infusion der Testsubstanz (gelöst in unbegastem Perfusionsmedium) während des O₂-Mangelzustandes herznah in das Perfusionssystem.
# Die getesteten Verbindungen ergaben bei Anwendung in der unten angegebenen Konzentration eine signifikante Reduktion der Zeit bis zum Einsetzen regelmäßiger Kontraktionen.
SMILES,H50-Wert [1],Konzentration (signifikante Reduktion der Zeit bis zum Einsetzen regelmäßiger Kontraktionen) (Isoliertes Rattenherz)
COc1cc2c(cc1OC)C(=C(C(=O)NCCN1CCOCC1)c1ccccc1)NCC2 [Verbindung A],0.73,
CCCCNC(=O)C(C1=NCCc2cc(OC)c(OC)cc21)c1ccccc1 (stereo not drawn) [Verbindung B],0.50,"13,3 ug/ml"
